System: Human Umbilical Vein Endothelial cells
Test: HUVEC proliferation assay (VEGF-stimulated)
Assay type: cell-based
Conditions: VEGF 50 ng/mL final, 72 h incubation, CyQuant dye, read-out: inhibited VEGF-stimulated HUVEC proliferation at a level (IC50)
Protocol: Human Umbilical Vein Endothelial cells are purchased from Clonetics, Inc., as cryopreserved cells harvested from a pool of donors. These cells, at passage 1, are thawed and expanded in EBM-2 complete medium, until passage 2 or 3. The cells are trypsinized, washed in DMEM+10% FBS+antibiotics, and spun at 1000 rpm for 10 min. Prior to centrifugation of the cells, a small amount is collected for a cell count. After centrifugation, the medium is discarded, and the cells are resuspended in the appropriate volume of DMEM+10% FBS+antibiotics to achieve a concentration of 3×10^5 cells/mL. Another cell count is performed to confirm the cell concentration. The cells are diluted to 3×10^4 cells/mL in DMEM+10% FBS+antibiotics, and 100 μL of cells are added to a 96-well plate. The cells are incubated at 37° C. for 22 h.
Prior to the completion of the incubation period, compound dilutions are prepared. Five-point, five-fold serial dilutions are prepared in DMSO, at concentrations 400-fold greater than the final concentrations desired. 2.5 μL of each compound dilution are diluted further in a total of 1 mL DMEM+10% FBS+antibiotics (400× dilution). Medium containing 0.25% DMSO is also prepared for the 0 μM compound sample. After 22-h, the medium is removed from the cells, and 100 μL of each compound dilution is added. The cells are incubated at 37° C. for 2-3 h.
During the compound pre-incubation period, the growth factors are diluted to the appropriate concentrations. Solutions of DMEM+10% FBS+antibiotics, containing either VEGF or bFGF at the following concentrations: 50, 10, 2, 0.4, 0.08, and 0 ng/mL are prepared. For the compound-treated cells, solutions of VEGF at 550 ng/mL or bFGF at 220 ng/mL for 50 ng/mL or 20 ng/mL final concentrations, respectively, are prepared since 10 μL of each will be added to the cells (110 μL final volume). At the appropriate time after adding the compounds, the growth factors are added. VEGF is added to one set of plates, while bFGF is added to another set of plates. For the growth factor control curves, the media on wells B4-G6 of plates 1 and 2 are replaced with media containing VEGF or bFGF at the varying concentrations (50-0 ng/mL). The cells are incubated at 37° C. for an additional 72 h.
At the completion of the 72 h incubation period, the medium is removed, and the cells are washed twice with PBS. After the second wash with PBS, the plates are tapped gently to remove excess PBS, and the cells are placed at −70° C. for at least 30 min. […] Raw data are collected and analyzed using a 4-parameter fit equation in XLFit. IC50 values are then determined.

SMILES	IC50 [nM]
CN1CCN(Cc2cc(Nc3nc4cc(Oc5ccnc6[nH]ccc56)ccc4o3)ccc2Cl)CC1 [Example 46, N-(4-Chloro-3-((4-methyl-1-piperazinyl)methyl)phenyl)-5-(1H-pyrrolo[2,3-b]pyridin-4-yloxy)-1,3-benzoxazol-2-amine]	< 100
CNC(=O)c1cc(Oc2cc(Cl)c3oc(Nc4ccc(Cl)c(CN5CCN(C)CC5)c4)nc3c2)ccn1 [Example 245, 4-{7-Chloro-2-[4-chloro-3-(4-methyl-piperazin-1-ylmethyl)-phenylamino]-benzoxazol-5-yloxy}-pyridine-2-carboxylic acid methyl amide]	< 100
COc1cc2nccc(Oc3ccc4[nH]c(Nc5ccc(Cl)c(CN6CCN(C)CC6)c5)nc4c3)c2cc1OC [Example 236, [4-Chloro-3-(4-methylpiperazin-1-ylmethyl)-phenyl]-[5-(6,7-dimethoxyquinolin-4-yloxy)-1H-benzimidazol-2-yl]-amine]	< 100
COc1cc2ncnc(Oc3ccc4[nH]c(Nc5ccc(Cl)cc5)nc4c3)c2cc1OC [Example 237, (4-Chlorophenyl)-[5-(6,7-dimethoxyquinazolin-4-yloxy)-1H-benzimidazol-2-yl]-amine]	< 100
CNC(=O)c1cc(Oc2cc(F)c3oc(Nc4ccc(Cl)c(OC[C@@H]5CCCN5C)c4)nc3c2)ccn1 [Example 49, 4-((2-((4-Chloro-3-(((2S)-1-methyl-2-pyrrolidinyl)methoxy)phenyl)amino)-7-fluoro-1,3-benzoxazol-5-yl)oxy)-N-methyl-2-pyridinecarboxamide]	< 100
COc1cc2ncnc(Oc3ccc4[nH]c(Nc5ccc(Cl)c(OCC6CCN(C)CC6)c5)nc4c3)c2cc1OC [Example 238, [4-Chloro-3-(1-methylpiperidin-4-ylmethoxy)-phenyl]-[5-(6,7-dimethoxyquinazolin-4-yloxy)-1H-benzimidazol-2-yl]-amine]	< 100
CC(C)N1CCC[C@H]1COc1cc(Nc2nc3cc(Oc4ccnc5[nH]ccc45)ccc3o2)ccc1Cl [Example 247, S-[4-Chloro-3-(1-isopropylpyrrolidin-2-ylmethoxy)-phenyl]-[5-(1H-pyrrolo[2,3-b]pyridin-4-yloxy)-benzoxazol-2-yl]-amine]	< 100
CNC(=O)c1cc(Oc2ccc3oc(Nc4ccc(Cl)c(OCC5CCN(C(C)C)CC5)c4)nc3c2)ccn1 [Example 244, 4-{2-[4-Chloro-3-(1-isopropylpiperidin-4-ylmethoxy)-phenylamino]-benzoxazol-5-yloxy}-pyridine-2-carboxylic acid methyl amide]	< 100
CNC(=O)c1cc(Oc2ccc3oc(Nc4ccc(Cl)c(CN5CCN(C)CC5)c4)nc3c2)ccn1 [Example 32, 4-{2-[4-Chloro-3-(4-methyl-piperazin-1-ylmethyl)-phenylamino]-benzoxazol-5-yloxy}-pyridine-2-carboxylic acid methylamide]	< 100
CNC(=O)c1cc(Oc2ccc3[nH]c(Nc4ccc(C(F)(F)C(F)(F)F)c(OC[C@H]5CCCN5C)c4)nc3c2)ccn1 [Example 6, R-4-{2-[3-(1-Methyl-pyrrolidin-2-ylmethoxy)-4-pentafluoroethyl-phenylamino]-1H-benzimidazol-5-yloxy}-pyridine-2-carboxylic acid methylamide]	< 100
CN1CCC[C@H]1COc1cc(Nc2nc3cc(Oc4ccnc(C(N)=O)c4)ccc3o2)ccc1Cl [Example 240, 4-{2-[4-Chloro-3-((2S)-1-methylpyrrolidin-2-ylmethoxy)-phenylamino]-benzoxazol-5-yloxy}-pyridine-2-carboxylic acid amide]	< 100
CCN(CC)CCOc1cc(Nc2nc3cc(Oc4ccnc(C(=O)NC)c4)ccc3o2)ccc1Cl [Example 248, 4-{2-[4-Chloro-3-(2-diethylamino-ethoxy)-phenylamino]-benzoxazol-5-yloxy}-pyridine-2-carboxylic acid methylamine]	< 100
CNc1cc(Oc2ccc3oc(Nc4ccc(Cl)c(OC[C@@H]5CCCN5C)c4)nc3c2)ccn1 [Example 239, [4-Chloro-3-((2S)-1-methylpyrrolidin-2-ylmethoxy)-phenyl]-[5-(2-methylamino-pyridin-4-yloxy)-benzoxazol-2-yl]-amine]	< 100
CNC(=O)c1cc(Oc2ccc3oc(Nc4ccc(Cl)c(OC[C@@H]5CCCN5C(C)C)c4)nc3c2)ccn1 [Example 252, 4-{2-[4-Chloro-3-((2S)-1-isopropyl-pyrrolidin-2-ylmethoxy)-phenylamino]-benzooxazol-5-yloxy}-pyridine-2-carboxilic acid methylamide]	< 100
CNC(=O)c1cc(Oc2ccc3oc(Nc4ccc(Br)cc4)nc3c2)ccn1 [Example 38]	< 100
CNC(=O)c1cc(Oc2ccc3[nH]c(Nc4ccc(C(F)(F)F)c(OCC5CCCN5C)c4)nc3c2)ccn1 (stereo not shown) [Example 13c]	< 100
CN(C)C1CCN(Cc2cc(Nc3nc4cc(Oc5ccnc6[nH]ccc56)ccc4o3)ccc2Cl)C1 (stereo not shown) [Example 264, [4-Chloro-3-(3-dimethylamino-pyrrolidin-1-ylmethyl)-phenyl]-[5-(1H-pyrrolo[2,3-b]pyridin-4-yloxy)-benzoxazol-2-yl]-amine]	< 100
CNC(=O)c1cc(Oc2ccc3oc(Nc4ccc(C(C)C)cc4)nc3c2)ccn1 [Example 39]	< 100
CN1CCC[C@@H]1COc1cc(Nc2nc3cc(Oc4ccnc5ccccc45)ccc3[nH]2)ccc1C(F)(F)F [Example 29, [3-(1-Methyl-pyrrolidin-2-ylmethoxy)-4-trifluoromethyl-phenyl]-[5-(quinolin-4-yloxy)-1H-benzimidazol-2-yl]-amine]	< 100
CNC(=O)c1cc(Oc2ccc3[nH]c(Nc4ccc(C(F)(F)F)c(OCCN(C)C)c4)nc3c2)ccn1 [Example 13a]	< 100
COc1cc2nccc(Oc3ccc4oc(Nc5ccc(Cl)c(OC[C@@H]6CCCN6C)c5)nc4c3)c2cc1OC [Example 259, S-[4-Chloro-3-(1-methylpyrrolidin-2-ylmethoxy)-phenyl]-[5-(6,7-dimethoxyquinolin-4-yloxy)-benzoxazol-2-yl]-amine]	< 100
CNC(=O)c1cc(Oc2ccc3oc(Nc4ccc(Cl)c(CN5CCN(CCN(C)C)CC5)c4)nc3c2)ccn1 [Example 246, 4-[2-{4-Chloro-3-[4-(2-dimethylamino-ethyl)-piperazin-1-ylmethyl]-phenylamino}-benzoxazol-5-yloxy)-pyridine-2-carboxylic acid methylamide]	< 100
COc1cc2ncnc(Oc3ccc4oc(Nc5ccc(Cl)c(OC[C@@H]6CCCN6C)c5)nc4c3)c2cc1OC [Example 263, S-[4-Chloro-3-(1-methyl-pyrrolidin-2-ylmethoxy)-phenyl]-[5-(6,7-dimethoxy-quinazolin-4-yloxy)-benzoxazol-2-yl]-amine]	< 100
CN1CCN(Cc2cc(Nc3nc4cc(Oc5ccnc6ccccc56)ccc4[nH]3)ccc2Cl)CC1 [Example 28, [4-Chloro-3-(4-methyl-piperazin-1-ylmethyl)-phenyl]-[5-(quinolin-4-yloxy)-1H-benzimidazol-2-yl]-amine]	< 100
CN1CCN(Cc2cc(Nc3nc4cc(Oc5ccnc6ccccc56)cc(Cl)c4o3)ccc2Cl)CC1 [Example 257, [4-Chloro-3-(4-methyl-piperazin-1-ylmethyl)-phenyl]-[7-chloro-5-(quinolin-4-yloxy)-benzoxazol-2-yl]-amine]	< 100
CNC(=O)c1cc(Oc2ccc3oc(Nc4ccc(Cl)c(OCC5CCN(C)CC5)c4)nc3c2)ccn1 [Example 242, 4-{2-[4-Chloro-3-(1-methylpiperidin-4-ylmethoxy)-phenylamino]-benzoxazol-5-yloxy}-pyridine-2-carboxylic acid methylamide]	< 100
CNC(=O)c1cc(Oc2ccc3c(c2)nc(Nc2ccc(Cl)c(CN4CCN(C)CC4)c2)n3C)ccn1 [Example 17, 4-{2-[4-Chloro-3-(4-methyl-piperazin-1-ylmethyl)-phenylamino]-1-methyl-1H-benzimidazol-5-yloxy}-pyridine-2-carboxylic acid methylamide]	< 100
CNC(=O)c1cc(Oc2ccc3oc(Nc4ccc(Cl)c(OCC5CCNCC5)c4)nc3c2)ccn1 [Example 243, 4-{2-[4-Chloro-3-(piperidin-4-ylmethoxy)-phenylamino]-benzoxazol-5-yloxy}-pyridine-2-carboxylic acid methylamide]	< 100
